Results: patent US8497254B2, “Oxadiazole derivatives as sphingosine 1-phosphate (S1P) receptor modulators” (Allergan, Inc., priority 2010, dated 2013)
pEC50: −log10 of the molar value.

Biological target: T1, human S1P1 receptor (Homo sapiens, UniProt P21453)
T1 construct: expressed in transfected cells; membranes were used
Test: GTP γ35S binding assay for S1P1 activity
Format: biochemical
Conditions: activity potency from GTP γ35S binding; membrane protein from cells stably expressing the S1P1 receptor; 30 min at 25° C.
Procedure: Compounds were synthesized and tested for S1P1 activity using the GTP γ^35S binding assay. These compounds may be assessed for their ability to activate or block activation of the human S1P1 receptor in cells stably expressing the S1P1 receptor.
GTP γ^35S binding was measured in the medium containing (mM) HEPES 25, pH 7.4, MgCl2 10, NaCl 100, dithitothreitol 0.5, digitonin 0.003%, 0.2 nM GTP γ^35S, and 5 μg membrane protein in a volume of 150 μl. Test compounds were included in the concentration range from 0.08 to 5,000 nM unless indicated otherwise. Membranes were incubated with 100 μM 5′-adenylylimmidodiphosphate for 30 min, and subsequently with 10 μM GDP for 10 min on ice. Drug solutions and membrane were mixed, and then reactions were initiated by adding GTP γ^35S and continued for 30 min at 25° C. Reaction mixtures were filtered over Whatman GF/B filters under vacuum, and washed three times with 3 mL of ice-cold buffer (HEPES 25, pH7.4, MgCl2 10 and NaCl 100). Filters were dried and mixed with scintillant, and counted for ^35S activity using a β-counter. Agonist-induced GTP γ^35S binding was obtained by subtracting that in the absence of agonist. Binding data were analyzed using a non-linear regression method. In case of antagonist assay, the reaction mixture contained 10 nM S1P in the presence of test antagonist at concentrations ranging from 0.08 to 5000 nM.

T1 sequence (P21453 whole entry): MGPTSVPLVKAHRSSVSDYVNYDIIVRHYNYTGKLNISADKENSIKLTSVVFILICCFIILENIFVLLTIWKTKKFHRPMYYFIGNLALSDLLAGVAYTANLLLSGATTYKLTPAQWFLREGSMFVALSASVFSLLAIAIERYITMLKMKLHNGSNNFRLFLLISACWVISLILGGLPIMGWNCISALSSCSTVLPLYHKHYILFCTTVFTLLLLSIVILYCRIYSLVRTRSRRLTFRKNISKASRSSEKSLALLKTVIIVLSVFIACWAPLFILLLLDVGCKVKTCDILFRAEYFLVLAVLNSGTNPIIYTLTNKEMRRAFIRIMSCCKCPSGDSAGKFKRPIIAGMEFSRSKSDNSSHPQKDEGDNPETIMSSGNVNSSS

SMILES	pEC50
Cc1ccc(CC(c2cccc(Cl)c2)c2nc(-c3ccc(CCC(=O)O)cc3C)no2)cc1C (stereo not shown) [Compound 6, 3-(4-{5-[1-(3-chlorophenyl)-2-(3,4-dimethylphenyl)ethyl]-1,2,4-oxadiazol-3-yl}-3-methylphenyl)propanoic acid]	5.97
Cc1cccc(CC(c2cccc(Cl)c2)c2nc(-c3ccc(CCC(=O)O)cc3C)no2)c1 (stereo not shown) [Compound 8, 3-(4-{5-[1-(3-chlorophenyl)-2-(3-methylphenyl)ethyl]-1,2,4-oxadiazol-3-yl}-3-methylphenyl)propanoic acid]	7.77
Cc1ccc(NC(c2cccc(Cl)c2)c2nc(-c3ccc(CNCCC(=O)O)cc3)no2)cc1C (stereo not shown) [3-{[4-(5-{(3-chlorophenyl)[(3,4-dimethylphenyl)amino]methyl}-1,2,4-oxadiazol-3-yl)benzyl]amino}propanoic acid]	8.82
Cc1ccc(CC(c2cccc(F)c2)c2nc(-c3ccc(CNCCCP(=O)(O)O)cc3)no2)cc1C (stereo not shown) [Compound 4, {3-[(4-{5-[2-(3,4-dimethylphenyl)-1-(3-fluorophenyl)ethyl]-1,2,4-oxadiazol-3-yl}benzyl)amino]propyl}phosphonic acid]	8.39
Cc1ccc(CC(c2cccc(Cl)c2)c2nc(-c3ccc(CNCCC(=O)O)cc3)no2)cc1C (stereo not shown) [Compound 1, 3-[(4-{5-[1-(3-chlorophenyl)-2-(3,4-dimethylphenyl)ethyl]-1,2,4-oxadiazol-3-yl}benzyl)amino]propanoic acid]	6.51
Cc1ccc(CC(c2cccc(Cl)c2)c2nc(-c3ccc(C(=O)NCCC(=O)O)cc3)no2)cc1C (stereo not shown) [Compound 9, 3-[(4-{5-[1-(3-chlorophenyl)-2-(3,4-dimethylphenyl)ethyl]-1,2,4-oxadiazol-3-yl}benzoyl)amino]propanoic acid]	6.04
Cc1ccc(CC(c2cc(F)cc(F)c2)c2nc(-c3ccc(CNCCC(=O)O)cc3)no2)cc1C (stereo not shown) [Compound 10, 3-[(4-{5-[1-(3,5-difluorophenyl)-2-(3,4-dimethylphenyl)ethyl]-1,2,4-oxadiazol-3-yl}benzyl)amino]propanoic acid]	5.96
Cc1ccc(CC(c2cccc(F)c2)c2nc(-c3ccc(CNCCC(=O)O)cc3)no2)cc1C (stereo not shown) [Compound 3, 3-[(4-{5-[2-(3,4-dimethylphenyl)-1-(3-fluorophenyl)ethyl]-1,2,4-oxadiazol-3-yl}benzyl)amino]propanoic acid]	6.22
Cc1ccc(CC(c2ccc(Cl)cc2)c2nc(-c3ccc(CCC(=O)O)cc3C)no2)cc1C (stereo not shown) [Compound 7, 3-(4-{5-[1-(4-chlorophenyl)-2-(3,4-dimethylphenyl)ethyl]-1,2,4-oxadiazol-3-yl}-3-methylphenyl)propanoic acid]	7.05
Cc1ccc(CC(c2cccc(Cl)c2)c2nc(-c3ccc(CNCCCP(=O)(O)O)cc3)no2)cc1C (stereo not shown) [Compound 2, {3-[(4-{5-[1-(3-chlorophenyl)-2-(3,4-dimethylphenyl)ethyl]-1,2,4-oxadiazol-3-yl}benzyl)amino]propyl}phosphonic acid]	8.42
Cc1ccc(CC(c2cccc(C(F)(F)F)c2)c2nc(-c3ccc(CNCCC(=O)O)cc3)no2)cc1C (stereo not shown) [Compound 12, 3-{[4-(5-{2-(3,4-dimethylphenyl)-1-[3-(trifluoromethyl)phenyl]ethyl}-1,2,4-oxadiazol-3-yl)benzyl]amino}propanoic acid]	6.47
Cc1ccc(CC(c2cc(F)cc(F)c2)c2nc(-c3ccc(CNCCCP(=O)(O)O)cc3)no2)cc1C (stereo not shown) [Compound 11, {3-[(4-{5-[1-(3,5-difluorophenyl)-2-(3,4-dimethylphenyl)ethyl]-1,2,4-oxadiazol-3-yl}benzyl)amino]propyl}phosphonic acid]	8.28
Cc1cc(C)cc(C(Cc2ccc(C)c(C)c2)c2nc(-c3ccc(CNCCC(=O)O)cc3)no2)c1 (stereo not shown) [Compound 13, 3-[(4-{5-[2-(3,4-dimethylphenyl)-1-(3,5-dimethylphenyl)ethyl]-1,2,4-oxadiazol-3-yl}benzyl)amino]propanoic acid]	6.27
